What was measured:
cucumber downy mildew = experiment: protectant activity in vivo against cucumber downy mildew; settings: for control effect against cucumber downy mildew (%): protectant activity
armyworm = experiment: bioactivity test against armyworm, airbrush spray; assay type: in vivo; settings: for control (test results against armyworm): mortality after 72 h
wheat powdery mildew = experiment: protectant activity in vivo against wheat powdery mildew; settings: 400 ppm
[1] = system: Green peach aphids (Myzus Persicae Sulzer); experiment: bioactivity test against green peach aphid, airbrush foliar spray; assay type: in vivo; settings: for Insecticidal activity against peach aphid (%): contrastive test; for control (test results against green peach aphid): death rate after 48 hrs
Summary of the method: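 Death rate was scored at 48 hrs, held at 25±1 C and 60±5% RH, following airbrush foliar spray (0.5 mL, 10 psi) onto cabbage leaf discs bearing about 15-30 aphids. Test solutions: compound dissolved in 1:1 acetone:methanol, brought to concentration with 0.1% tween 80 water.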

carmine spider mite = experiment: bioactivity test against carmine spider mite, airbrush spray; assay type: in vivo; settings: for Insecticidal activity against carmine spider mite (% ): contrastive test; for control against carmine spider mite: mortality after 72 hrs
Summary of the method: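 Broadbean seedlings infested with adult mites were sprayed with compound (acetone/methanol stock diluted in 0.1% Tween 80 water) by airbrush at 0.7 kg/cm^2, 0.5 ml. Three replicates were run. Mortality was scored after 72 hrs.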

Diamond back moth = experiment: insecticidal activity against diamond back moth, airbrush spray; assay type: in vivo; settings: 600 ppm, mortality after 72 hrs
Protocol: Compounds were dissolved in mixed solvent (acetone:methanol=1:1), and diluted to required concentration with water containing 0.1% of tween 80.
Diamond back moth, armyworm, peach aphid and carmine spider mite were used as targets and the method of spraying by airbrush was used for determination of insecticidal biassays.
The method of spraying by airbrush: The cabbage leaves were made into plates of 2 cm diameter by use of punch. A test solution (0.5 ml) was sprayed by airbrush at the pressure of 0.7 kg/cm^2 to both sides of every plate. 10 Second instar larvae were put into the petri-dishes after the leaf disc air-dried and 3 replicates were set for each treatment. Then the insects were maintained in observation room (25° C., 60˜70% R.H.). Scores were conducted and mortalities were calculated after 72 hrs.

SMILES | control effect against cucumber downy mildew (%) (cucumber downy mildew; 6.25 mg/L) | control effect against cucumber downy mildew (%) (cucumber downy mildew; 12.5 mg/L) | control effect against cucumber downy mildew (%) (cucumber downy mildew; 25 mg/L) | control effect against cucumber downy mildew (%) (cucumber downy mildew; 50 mg/L) | control effect against cucumber downy mildew (%) (cucumber downy mildew; 100 mg/L) | control effect against cucumber downy mildew (%) (cucumber downy mildew; 400 mg/L) | protectant activity against cucumber downy mildew in vivo (cucumber downy mildew; 6.25 ppm) | protectant activity against cucumber downy mildew in vivo (cucumber downy mildew; 12.5 ppm) | protectant activity against cucumber downy mildew in vivo (cucumber downy mildew; 25 ppm) | protectant activity against cucumber downy mildew in vivo (cucumber downy mildew; 50 ppm) | protectant activity against cucumber downy mildew in vivo (cucumber downy mildew; 100 ppm) | protectant activity against cucumber downy mildew in vivo (cucumber downy mildew; 400 ppm) | Insecticidal activity against armyworm (%) (armyworm; 10 mg/L) | Insecticidal activity against armyworm (%) (armyworm; 100 mg/L) | Insecticidal activity against armyworm (%) (armyworm; 600 mg/L) | control (test results against armyworm) (armyworm; 100 ppm) | control (test results against armyworm) (armyworm; 600 ppm) | protectant activity against wheat powdery mildew in vivo (wheat powdery mildew) | Insecticidal activity against peach aphid (%) ([1]; 10 mg/L) | Insecticidal activity against peach aphid (%) ([1]; 100 mg/L) | other results
Cc1ncnc(NCCc2ccc(Oc3ccc(C(F)(F)F)cc3)nc2)c1Cl [III-22] | 100% | 100% | 100% | 100% | 100% | 100% | 100% | 100% | 100% | 100% | 100% | 100% | 71% | 100% | 100% | 100% | 100% | 100% | 100% | 100% | Insecticidal activity against peach aphid (%) ([1]; 1.25 mg/L): 67%; Insecticidal activity against peach aphid (%) ([1]; 2.5 mg/L): 98%; Insecticidal activity against peach aphid (%) ([1]; 5 mg/L): 100%; Insecticidal activity against peach aphid (%) ([1]; 600 mg/L): 100%; control (test results against green peach aphid) ([1]; 10 ppm): 100%; control (test results against green peach aphid) ([1]; 100 ppm): 100%; control (test results against green peach aphid) ([1]; 600 ppm): 100%; Insecticidal activity against carmine spider mite (% ) (carmine spider mite; 10 mg/L): 72%; Insecticidal activity against carmine spider mite (% ) (carmine spider mite; 100 mg/L): 100%; Insecticidal activity against carmine spider mite (% ) (carmine spider mite; 600 mg/L): 100%; control against carmine spider mite (carmine spider mite; 100 ppm): 100%; control against carmine spider mite (carmine spider mite; 600 ppm): 100%; control (test results against diamond back moth) (Diamond back moth): 100%
CCc1ncnc(NCCc2ccc(Oc3ccc(Cl)cc3)nc2)c1Cl [III-187] | 100% | 100% | 100% | 100% | 100% | 100% | 100% | 100% | 100% | 100% | 100% | 100% | 95% | 100% | 100% | 100% | 100% | 100% | 100% | 100% | Insecticidal activity against peach aphid (%) ([1]; 600 mg/L): 100%; control (test results against green peach aphid) ([1]; 10 ppm): 100%; control (test results against green peach aphid) ([1]; 100 ppm): 100%; control (test results against green peach aphid) ([1]; 600 ppm): 100%; control against carmine spider mite (carmine spider mite; 100 ppm): 100%; control against carmine spider mite (carmine spider mite; 600 ppm): 100%; control (test results against diamond back moth) (Diamond back moth): 100%
